Test results reported in patent US8354436B2 (4SC Discovery GmbH, priority 2011, dated 2013).
pIC50: −log10 of the molar value. Like-named read-outs stand apart in the source and are kept apart here.

What was measured:
Format in all cases: cell-based
Details in all cases: 48 hours
[1] = test system: IL-17FF; assay: IL-17FF production by PHA-stimulated human PBMC (human IL-17F ELI-Pair)
Summary of the method: (§1)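 Inhibition of PHA-driven (2 μg/ml) cytokine release from human PBMC at 1×10^5 cells/well, 48 h compound exposure. IC50 from semilog titrations.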

[2] = test system: IFN-γ; assay: IFN-γ production by PHA-stimulated human PBMC (OptEIA human IFN-g ELISA)
Summary of the method: as §1

[3] = test system: PBMC from healthy human donors; assay: T cell proliferation assay (PHA-stimulated human PBMC, BrdU ELISA)
Summary of the method: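 Healthy-donor PBMC isolated on Ficoll, seeded at 1×10⁵ cells/well in RPMI with 10% dialysed FCS, stimulated with 2 μg/ml PHA in presence of test compound. Proliferation read after 48 hours by BrdU-incorporation ELISA.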

[4] = human PBMC, 2 μg/ml PHA, read-out: B: IC50 (IL-17FF)
[5] = human PBMC, 2 μg/ml PHA, read-out: C: IC50 (IFNγ)
[6] = human PBMC, 2 μg/ml PHA, read-out: D: IC50 (Tcell proliferation)
[7] = PHA-stimulated human PBMC, column B, read-out: IC50 (IL-17FF)
[8] = PHA-stimulated human PBMC, column C, read-out: IC50 (IFNγ)
[9] = PHA-stimulated human PBMC, column D, read-out: IC50 (Tcell proliferation)

| pIC50 [1, 4] | pIC50 [2, 5] | pIC50 [1, 7] | pIC50 [2, 8] | SMILES | pIC50 [3, 6] | pIC50 [3, 9] |
| --- | --- | --- | --- | --- | --- | --- |
| > 8.00 | > 8.00 |  |  | Fc1cccc(Cl)c1-c1noc(-c2cnn(-c3cccc(Cl)c3)c2C(F)(F)F)c1-c1ccoc1 [Example B-7, 3-(2-chloro-6-fluorophenyl)-5-(1-(3-chlorophenyl)-5-(trifluoromethyl)-1H-pyrazol-4-yl)-4-(furan-3-yl)isoxazole] | > 8.00 |  |
|  |  | 7.00 to 8.00 | 7.00 to 8.00 | CNC(=O)c1c(-c2c(Cl)cccc2Cl)noc1-c1cnn(-c2cccc(F)c2)c1C(F)(F)F [Example I-110, 3-(2,6-dichlorophenyl)-5-(1-(3-fluorophenyl)-5-(trifluoromethyl)-1H-pyrazol-4-yl)-N-methylisoxazole-4-carboxamide] |  | 7.00 to 8.00 |
|  |  | 6.00 to 7.00 | 6.00 to 7.00 | Fc1cc(F)cc(-n2ncc(-c3onc(-c4c(F)cccc4Cl)c3Br)c2C(F)(F)F)c1 [IB-27, 4-bromo-3-(2-chloro-6-fluorophenyl)-5-(1-(3,5-difluorophenyl)-5-(trifluoromethyl)-1H-pyrazol-4-yl)isoxazole] |  | 6.00 to 7.00 |
|  |  | 7.00 to 8.00 | 7.00 to 8.00 | COC(=O)c1c(-c2c(F)cccc2Cl)noc1-c1cnn(-c2ccncc2)c1C(F)(F)F [IB-69, methyl 3-(2-chloro-6-fluorophenyl)-5-(1-(pyridin-4-yl)-5-(trifluoromethyl)-1H-pyrazol-4-yl)isoxazole-4-carboxylate] |  | 7.00 to 8.00 |
|  |  | 6.00 to 7.00 | 6.00 to 7.00 | COC(=O)c1c(-c2c(F)cccc2Cl)noc1-c1cnn(C2CCS(=O)(=O)C2)c1C(F)(F)F (stereo not drawn) [Example I-103, methyl 3-(2-chloro-6-fluorophenyl)-5-(1-(3-hydrazinyltetrahy-drothiophene 1,1-dioxide)-5-(trifluoromethyl)-1H-pyrazol-4-yl)isoxazole-4-carboxylate] |  | 6.00 to 7.00 |
|  |  | 5.00 to 6.00 | 6.00 to 7.00 | CNC(=S)c1c(-c2c(F)cccc2Cl)noc1-c1cnn(-c2ccc(F)cc2)c1C(F)(F)F [Example I-76, 3-(2-chloro-6-fluorophenyl)-5-(1-(4-fluorophenyl)-5-(trifluoromethyl)-1H-pyrazol-4-yl)-N-methylisoxazole-4-carbothioamide] |  | 5.00 to 6.00 |
|  |  | 5.00 to 6.00 | 5.00 to 6.00 | CON(C)C(=O)c1c(-c2c(F)cccc2Cl)noc1-c1cnn(-c2cccnc2)c1C(F)(F)F [IB-56, 3-(2-chloro-6-fluorophenyl)-N-methoxy-N-methyl-5-(1-(pyridin-3-yl)-5-(trifluoromethyl)-1H-pyrazol-4-yl)isoxazole-4-carboxamide] |  | 5.00 to 6.00 |
|  |  | > 8.00 | > 8.00 | CCOC(=O)c1c(-c2c(Cl)cccc2Cl)noc1-c1cnn(-c2cccc(Cl)c2)c1C(F)(F)F [IB-45, ethyl 5-(1-(3-chlorophenyl)-5-(trifluoromethyl)-1H-pyrazol-4-yl)-3-(2,6-dichlorophenyl)-isoxazole-4-carboxylate] |  | > 8.00 |
|  |  | 6.00 to 7.00 | 7.00 to 8.00 | CCOC(=O)c1c(-c2onc(-c3c(F)cccc3Cl)c2C(=O)OC)cnn1-c1cccc(Cl)c1 [Example I-10, methyl 3-(2-chloro-6-fluorophenyl)-5-(1-(3-chlorophenyl)-5-(ethoxycarbonyl)-1H-pyrazol-4-yl)isoxazole-4-carboxylate] |  | 7.00 to 8.00 |
| 7.00 to 8.00 | 7.00 to 8.00 |  |  | Fc1ccccc1-n1ncc(-c2onc(-c3c(F)cccc3Cl)c2-c2nccs2)c1C(F)(F)F [Example B-30, 3-(2-chloro-6-fluorophenyl)-5-(1-(2-fluorophenyl)-5-(trifluoromethyl)-1H-pyrazol-4-yl)-4-(thiazol-2-yl)isoxazole] | 7.00 to 8.00 |  |
| 6.00 to 7.00 | 7.00 to 8.00 |  |  | Cc1nnc(-c2c(-c3c(F)cccc3Cl)noc2-c2cnn(-c3cccnc3)c2C(F)(F)F)o1 [Example B-10, 2-(3-(2-chloro-6-fluorophenyl)-5-(1-(pyridin-3-yl)-5-(trifluoromethyl)-1H-pyrazol-4-yl)isoxazol-4-yl)-5-methyl-1,3,4-oxadiazole] | 6.00 to 7.00 |  |
|  |  | 6.00 to 7.00 | 7.00 to 8.00 | CCOC(=O)c1c(-c2ccncc2F)noc1-c1cnn(-c2ccncc2)c1C(F)(F)F [IB-3, ethyl 3-(3-fluoropyridin-4-yl)-5-(1-(pyridin-4-yl)-5-(trifluoromethyl)-1H-pyrazol-4-yl)isoxazole-4-carboxylate] |  | 6.00 to 7.00 |
|  |  | 6.00 to 7.00 | 5.00 to 6.00 | O=C(c1c(-c2c(F)cccc2Cl)noc1-c1cnn(-c2ccccc2Cl)c1C(F)(F)F)N1CCCO1 [IB-49, (3-(2-chloro-6-fluorophenyl)-5-(1-(2-chlorophenyl)-5-(trifluoromethyl)-1H-pyrazol-4-yl)isoxazol-4-yl)(isoxazolidin-2-yl)methanone] |  | 5.00 to 6.00 |
|  |  | 6.00 to 7.00 | 6.00 to 7.00 | CC(C)NS(=O)(=O)c1cccc(-n2ncc(-c3onc(-c4c(F)cccc4Cl)c3C(=O)OC(C)C)c2C(F)(F)F)c1 [IB-79, isopropyl 3-(2-chloro-6-fluorophenyl)-5-(1-(3-(N-isopropylsulfamoyl)phenyl)-5-(trifluoromethyl)-1H-pyrazol-4-yl)isoxazole-4-carboxylate] |  | 6.00 to 7.00 |
|  |  | > 8.00 | > 8.00 | COC(=O)c1c(-c2c(F)cccc2Cl)noc1-c1cnn(-c2ccc(F)cc2)c1C(F)(F)F [Example I-3, methyl 3-(2-chloro-6-fluorophenyl)-5-(1-(4-fluorophenyl)-5-(trifluoromethyl)-1H-pyrazol-4-yl)isoxazole-4-carboxylate] |  | 7.00 to 8.00 |
|  |  | 7.00 to 8.00 | 7.00 to 8.00 | O=C(c1c(-c2ccccc2Cl)noc1-c1cnn(-c2cccc(Cl)c2)c1C(F)(F)F)N1CCCO1 [IB-62, (3-(2-chlorophenyl)-5-(1-(3-chlorophenyl)-5-(trifluoromethyl)-1H-pyrazol-4-yl)isoxazol-4-yl)(isoxazolidin-2-yl)methanone] |  | 7.00 to 8.00 |
|  |  | 5.00 to 6.00 | 5.00 to 6.00 | O=C(c1c(-c2c(F)cccc2Cl)noc1-c1cnn(-c2ccncc2)c1C(F)(F)F)N1CCCO1 [IB-57, (3-(2-chloro-6-fluorophenyl)-5-(1-(pyridin-4-yl)-5-(trifluoromethyl)-1H-pyrazol-4-yl)isoxazol-4-yl)(isoxazolidin-2-yl)methanone] |  | 5.00 to 6.00 |
| 6.00 to 7.00 | 7.00 to 8.00 |  |  | Fc1cccc(-n2ncc(-c3onc(-c4c(F)cccc4Cl)c3-c3ccccc3)c2C(F)(F)F)c1 [Example 14, 3-(2-chloro-6-fluorophenyl)-5-(1-(3-fluorophenyl)-5-(trifluoromethyl)-1H-pyrazol-4-yl)-4-phenylisoxazole] | 6.00 to 7.00 |  |
|  |  | 7.00 to 8.00 | 7.00 to 8.00 | COC(=O)c1c(-c2c(F)cccc2Cl)noc1-c1cnn(-c2cc(Cl)cc(Cl)c2)c1C(F)(F)F [Example I-68, methyl 3-(2-chloro-6-fluorophenyl)-5-(1-(3,5-dichlorophenyl)-5-(trifluoromethyl)-1H-pyrazol-4-yl)isoxazole-4-carboxylate] |  | 7.00 to 8.00 |
| 6.00 to 7.00 | 6.00 to 7.00 |  |  | Cc1nnc(-c2c(-c3c(F)cccc3Cl)noc2-c2cnn(-c3ccccc3Cl)c2C(F)(F)F)s1 [Example B-20, 3-(2-chloro-6-fluorophenyl)-5-(1-(2-chlorophenyl)-5-(trifluoromethyl)-1H-pyrazol-4-yl)-4-(5-methyl-1,3,4-thiadiazol-2-yl)isoxazole] | 6.00 to 7.00 |  |
